Experimental findings from ChEMBL document CHEMBL4765237, “Structural optimization and structure-activity relationship studies of N-phenyl-7,8-dihydro-6H-pyrimido[5,4-b][1,4]oxazin-4-amine derivatives as a new class of inhibitors of RET and its drug resistance mutants” (Eur J Med Chem, 2018) are described below.

pIC50: −log10 of the molar value. Active and inactive are the calls of the source. The rule behind the calls is not given here.

As usually defined, the GI50 is the concentration that inhibits growth by half. The low end stands for greater sensitivity of the cells, the high end for lower sensitivity of the cells. The term pIC50 denotes the IC50 on a negative log10 scale, so that one unit is a factor of ten. Read a high pIC50 as a small IC50.

A short description of data set [1]: Toxicity in NOD-SCID mouse xenografted with […] cells harboring RET C634Y mutant assessed as reduction in body weight at 30 mg/kg, po administered for 18 days and measured on day 18. The data set is classed as organism-based. The conditions noted are these: in vivo, 432 h, time 18 day. (Xenograft models place foreign cells or tissue in a host animal.)

The subject of data set [2] is BaF3. The data set is classed as functional. The conditions noted are these: Mus musculus, BaF3, 72 h; time 3 day.
Data set [3] is described as follows: Growth inhibition of human TT cells incubated for 10 days by MTT assay. The conditions noted are these: 240 h, time 10 day. The class given is functional. In general terms: Tetrazolium assays rely on reduction of a dye to a coloured formazan, in cell work by metabolically active cells.
Data set [4] in a line: Growth inhibition of […] NIH3T3 cells incubated for 3 days by MTT assay. The following applies: NIH3T3, 72 h; time 3 day. The class given is functional.
Data set [5] deals with BaF3. In words: Growth inhibition of mouse BaF3 cells incubated for 3 days by MTT assay. The class given is functional. The conditions noted are these: BaF3, 72 h, time 3 day.
The test system of data set [6] is BaF3. Kind of data set: Growth inhibition of mouse BaF3 cells harboring RET M918T mutant incubated for 3 days by MTT assay. The class given is functional. The following applies: BaF3, 72 h, time 3 day.
For data set [7], the system named is BaF3. In words: Growth inhibition of mouse BaF3 cells harboring RET V804M mutant incubated for 3 days by MTT assay. The data set is classed as functional. The following applies: BaF3, 72 h, time 3 day.
The test system of the next data set is NIH3T3. The conditions noted are these: Homo sapiens, dose 30.0 mg/kg, time 18.0 day.
In data set [8] the test system is BaF3. In words: Growth inhibition of mouse BaF3 cells over expressing wild type RET incubated for 3 days by MTT assay. The class given is functional. The following applies: BaF3, 72 h, time 3 day.
A short description of data set [9]: Growth inhibition of […] NIH3T3 cells harboring RET C634Y mutant incubated for 3 days by MTT assay. The data set is classed as functional. The following applies: NIH3T3, 72 h; time 3 day.
The target of data set [10] is Proto-oncogene tyrosine-protein kinase receptor Ret (Homo sapiens, UniProt P07949).
Sequence of Proto-oncogene tyrosine-protein kinase receptor Ret (Homo sapiens, UniProt P07949) (P07949 whole entry): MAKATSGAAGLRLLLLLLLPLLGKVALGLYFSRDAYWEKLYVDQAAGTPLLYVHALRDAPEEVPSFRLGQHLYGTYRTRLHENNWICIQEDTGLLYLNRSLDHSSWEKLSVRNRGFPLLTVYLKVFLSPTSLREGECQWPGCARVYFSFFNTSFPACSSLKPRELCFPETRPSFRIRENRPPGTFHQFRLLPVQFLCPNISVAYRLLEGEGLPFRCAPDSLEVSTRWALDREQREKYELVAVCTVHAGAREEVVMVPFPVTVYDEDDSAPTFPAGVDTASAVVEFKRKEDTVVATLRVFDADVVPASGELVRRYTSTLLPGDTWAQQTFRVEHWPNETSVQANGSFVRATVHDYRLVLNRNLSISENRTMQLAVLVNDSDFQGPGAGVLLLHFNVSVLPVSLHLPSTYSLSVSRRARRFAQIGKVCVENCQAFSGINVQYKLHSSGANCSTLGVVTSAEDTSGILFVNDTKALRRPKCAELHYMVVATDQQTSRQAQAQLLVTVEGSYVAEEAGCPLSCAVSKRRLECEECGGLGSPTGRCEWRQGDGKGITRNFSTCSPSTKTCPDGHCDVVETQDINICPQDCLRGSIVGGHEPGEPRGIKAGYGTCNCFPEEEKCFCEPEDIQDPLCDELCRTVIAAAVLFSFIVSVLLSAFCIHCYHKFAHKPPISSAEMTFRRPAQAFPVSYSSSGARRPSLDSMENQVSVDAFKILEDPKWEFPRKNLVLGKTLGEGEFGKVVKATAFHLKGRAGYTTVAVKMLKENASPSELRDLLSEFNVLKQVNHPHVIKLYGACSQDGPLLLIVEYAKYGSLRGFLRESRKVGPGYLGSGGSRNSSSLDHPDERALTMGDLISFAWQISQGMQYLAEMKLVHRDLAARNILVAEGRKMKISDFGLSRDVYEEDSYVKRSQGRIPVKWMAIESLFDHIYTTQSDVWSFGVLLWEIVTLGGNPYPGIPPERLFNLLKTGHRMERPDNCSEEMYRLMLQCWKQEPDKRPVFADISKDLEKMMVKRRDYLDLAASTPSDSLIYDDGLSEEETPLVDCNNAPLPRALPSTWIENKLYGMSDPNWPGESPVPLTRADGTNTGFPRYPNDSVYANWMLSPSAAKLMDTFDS
Data set [11] addresses Proto-oncogene tyrosine-protein kinase receptor Ret (Homo sapiens, UniProt P07949, V804M).

Sequence of Proto-oncogene tyrosine-protein kinase receptor Ret (Homo sapiens, UniProt P07949, V804M) (P07949 29-1114 V804M limits assumed): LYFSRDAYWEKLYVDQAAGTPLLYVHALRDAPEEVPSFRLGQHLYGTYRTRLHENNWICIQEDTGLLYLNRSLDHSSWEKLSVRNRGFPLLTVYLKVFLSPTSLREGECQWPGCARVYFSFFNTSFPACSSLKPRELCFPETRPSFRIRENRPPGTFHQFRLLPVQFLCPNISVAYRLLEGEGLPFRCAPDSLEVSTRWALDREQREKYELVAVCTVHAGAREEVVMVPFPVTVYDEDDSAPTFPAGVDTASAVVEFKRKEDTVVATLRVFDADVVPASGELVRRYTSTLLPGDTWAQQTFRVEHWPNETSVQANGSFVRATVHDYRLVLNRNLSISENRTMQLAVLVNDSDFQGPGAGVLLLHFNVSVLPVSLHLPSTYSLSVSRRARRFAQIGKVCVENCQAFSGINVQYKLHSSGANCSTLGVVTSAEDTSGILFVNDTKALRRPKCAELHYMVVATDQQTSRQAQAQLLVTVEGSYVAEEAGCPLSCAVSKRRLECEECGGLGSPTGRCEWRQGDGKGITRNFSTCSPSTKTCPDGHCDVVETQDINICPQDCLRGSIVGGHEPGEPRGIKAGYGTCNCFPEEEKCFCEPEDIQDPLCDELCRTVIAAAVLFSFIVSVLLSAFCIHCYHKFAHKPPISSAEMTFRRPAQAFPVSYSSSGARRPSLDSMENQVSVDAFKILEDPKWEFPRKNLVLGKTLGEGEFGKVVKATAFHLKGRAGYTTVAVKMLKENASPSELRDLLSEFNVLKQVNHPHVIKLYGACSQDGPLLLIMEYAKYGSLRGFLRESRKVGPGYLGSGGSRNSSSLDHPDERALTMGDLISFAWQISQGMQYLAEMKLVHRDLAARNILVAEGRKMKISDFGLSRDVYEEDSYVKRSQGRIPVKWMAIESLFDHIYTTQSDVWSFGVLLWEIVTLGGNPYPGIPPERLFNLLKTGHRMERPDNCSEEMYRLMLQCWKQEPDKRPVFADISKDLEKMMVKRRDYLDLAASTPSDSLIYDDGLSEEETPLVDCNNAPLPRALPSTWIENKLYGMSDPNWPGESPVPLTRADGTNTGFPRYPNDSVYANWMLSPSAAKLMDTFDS

In the case of `COc1cc2nccc(Oc3ccc(NC(=O)C4(C(=O)Nc5ccc(F)cc5)CC4)cc3)c2cc1OC` [CABOZANTINIB], in data set [1], the Activity result is on record as “Non-Toxic”. Also, the GI50 is 1.53 µM in the data set with BaF3 [2]; 0.2 µM in [3]; greater than 10 µM in [4]; 9.36 µM in the data set with BaF3 [5]; 1.45 µM with BaF3 [6]; 2.8 µM in the data set with BaF3 [7]. Also, the 50% growth inhibitory concentration (GI50) in the data set on BaF3 [8] amounted to 0.15 µM; in data set [9] it was 0.1 µM. Further, in the data set on NIH3T3, the TGI result was “Active”.

On to `CNC(=O)c1cc(Oc2ccc(NC(=O)Nc3ccc(Cl)c(C(F)(F)F)c3)cc2)ccn1` [SORAFENIB], for which, in data set [1], the Activity result was “Non-Toxic”. Besides, the GI50 in the data set with BaF3 [2] is 1.8 µM; in [3], 0.23 µM; in [4], greater than 10 µM; with BaF3 [5] it was 6.36 µM; in the data set with BaF3 [6], 1.28 µM; in the data set with BaF3 [7] it was 1.1 µM. For the same molecule, the concentration for 50% growth inhibition (GI50) in the data set on BaF3 [8] amounted to 0.23 µM; in [9], 0.32 µM. Further, in the data set on NIH3T3, the TGI result was “Active”.

As to `Cc1cc(C)cc(NC(=O)Nc2ccc(Nc3ncnc4c3OCCN4)cc2)c1`, the concentration for 50% growth inhibition (GI50) was greater than 10 µM with BaF3 [2]; 5.65 µM in data set [3]; greater than 10 µM in data set [4]; greater than 10 µM in the data set on BaF3 [5]; greater than 10 µM in the data set on BaF3 [6]; greater than 10 µM in the data set on BaF3 [7]. Moreover, the GI50 in the data set on BaF3 [8] was greater than 10 µM; in data set [9], 7.08 µM. Besides, the pIC50 was 5.97 in [10] and 6.01 in [11].

As to `Cc1nc(Nc2ncnc3c2OCCN3)ccc1NC(=O)Nc1cc(C(C)(C)C)on1`, the GI50 (with BaF3 [2]; in data set [3]; in data set [4]; with BaF3 [5]; with BaF3 [6]; with BaF3 [7]) was greater than 10 µM throughout. The GI50 is greater than 10 µM with BaF3 [8] and 10 µM in [9]. The results for the pIC50 in [10] and in data set [11] were 6.11 and 5.95, respectively.

For `CN1CCCOc2c(Nc3ccc(NC(=O)Nc4cc(C(C)(C)C)on4)cc3)ncnc21`, the GI50 with BaF3 [2] is greater than 10 µM; in data set [3], 1.6 µM; in data set [4], greater than 10 µM; in the data set with BaF3 [5], greater than 10 µM; in the data set with BaF3 [6], greater than 10 µM; in the data set with BaF3 [7] it was greater than 10 µM. Further, the GI50 in the data set with BaF3 [8] is 3.89 µM; in data set [9], 3.58 µM. For the same molecule, the pIC50 in data set [10] is 6.49; in data set [11] it was 6.15.

As for `CC(C)N1CCOc2c(Nc3ccc(NC(=O)Nc4cc(C(C)(C)C)on4)cc3)ncnc21`, the concentration for 50% growth inhibition (GI50) in the data set on BaF3 [2] was 7.98 µM; in data set [3], 5.1 µM; in data set [4], greater than 10 µM; in the data set with BaF3 [5], greater than 10 µM; in the data set with BaF3 [6] it was 8.61 µM; with BaF3 [7], 8.98 µM. Besides, the GI50 in the data set with BaF3 [8] was 5.16 µM; in [9], 3.12 µM. The negative logarithm of the IC50 (pIC50) in data set [10] was 5.06; in [11], 5.27.

Regarding `CN1CCOc2c(Nc3ccc(NC(=O)Nc4cc(C(C)(C)C)on4)cc3)ncnc21`, the GI50 in the data set on BaF3 [2] was greater than 10 µM; in data set [3], 4.86 µM; in [4], greater than 10 µM; in the data set on BaF3 [5], greater than 10 µM; in the data set with BaF3 [6], greater than 10 µM; with BaF3 [7], greater than 10 µM. Also, the results for the GI50 (in the data set on BaF3 [8]; in data set [9]) were 8.06 µM and greater than 10 µM, respectively. For the same molecule, the pIC50 is 6.49 in data set [10] and 6.46 in data set [11].
